Measurements from US5376634A, “Polypeptide compound and a process for preparation thereof” (Fujisawa Pharmaceutical Co., Ltd., priority 1990, dated 1994).
Starred links: 1 amine or outer side, 2 acyl side, 3 side chain; linkers in the order of their positions; H or OH if unused. Positions of bridges follow the written chain, without caps; N, C: chain ends. Non-standard residues stand in square brackets, D forms with d. Residues, ends and D or L forms follow the SMILES beside them. *: point of attachment. hTyr(3S-OH,4S-OH,3'-OSO3H) = N[C@H](C(=O)O)[C@H](O)[C@@H](O)c1ccc(O)c(OS(=O)(=O)O)c1; Orn(4R-OH,5S-OH) = O=C([C@H](C[C@@H](O)[C@H](O)N[*:3])N[*:1])[*:2]; Pro(3S-OH,4S-Me) = C[C@H]1CN[C@H](C(=O)O)[C@H]1O; Benzoyl(4-octyloxy) = CCCCCCCCOc1ccc(C(=O)*)cc1; Gln(3R-OH) = NC(=O)C[C@@H](O)[C@H](N)C(=O)O; Hyp = O=C(O)[C@@H]1C[C@@H](O)CN1

Assays:
[1] = Solubility (physico-chemical properties); type: physicochemical
ICR mice = assay: Acute toxicity, single intravenous injection; type: in vivo; details: ICR mice (female, 4 weeks old), dose of 500 mg/kg
Description: The acute toxicity of the FR131535 substance was determined to ICR mice (female, 4 weeks old) by a single intravenous injection.

## CCCCCCCCOc1ccc(C(=O)N[C@H]2C[C@@H](O)[C@H](O)NC(=O)[C@@H]3[C@@H](O)[C@@H](C)CN3C(=O)[C@H]([C@H](O)CC(N)=O)NC(=O)[C@H]([C@H](O)[C@@H](O)c3ccc(O)c(OS(=O)(=O)O)c3)NC(=O)[C@@H]3C[C@@H](O)CN3C(=O)[C@H]([C@@H](C)O)NC2=O)cc1 [FR131535] ({Benzoyl(4-octyloxy)}-[Orn(4R-OH,5S-OH)]T[Hyp][hTyr(3S-OH,4S-OH,3'-OSO3H)][Gln(3R-OH)][Pro(3S-OH,4S-Me)]; lactam 1-C)
[1]; acetone
  Solubility: slightly soluble
[1]; methanol
  Solubility: soluble
[1]; n-hexane
  Solubility: insoluble
[1]; water
  Solubility: soluble
ICR mice
  acute toxicity: No toxic symptom was observed
